According to patent US20250129062A1, “AMORPHOUS SUBSTANCES, CRYSTALS, PHARMACEUTICAL COMPOSITIONS, PREPARATION METHODS AND USES OF THIOHYDANTOIN COMPOUND OR PHARMACEUTICALLY ACCEPTABLE SALT THEREOF” (SUZHOU KINTOR PHARMACEUTICALS, INC., priority 2021, published 2025):
Values after ≈ are worked out from the molar mass of the structure shown. Where two headings read alike, the source gives them in different places.

Test: Solubility of amorphous substance in solvent systems (supersaturated solution, oscillated 24 h at room temperature, HPLC)
Assay type: physicochemical
Settings: for solubility at 24 h: thermodynamic from solid
Method: The amorphous substance of the compound of formula I was prepared into supersaturated solutions with different solvents, and oscillated under a room temperature condition (a constant temperature). After oscillating for 24 h, sampling was performed, and the content of the sample was detected by HPLC under condition 1.
Condition 1: • Chromatographic column: C18 (150 mm×4.6 mm×3.5 μm); • Mobile phase: binary mobile phase system, mobile phase A was 0.1% formic acid in water, mobile phase B was acetonitrile; • Elution time: 68 min; • Elution mode: gradient elution (in the gradient elution process, mobile phase A had the maximum volume percentage of 95% and the minimum volume percentage of 10%); • Detection wavelength: 270 nm.

Compound Cc1ncsc1-c1ccc(CNC(=O)[C@@H]2C[C@@H](O)CN2C(=O)[C@@H](NC(=O)COCCCCOc2ccc(-c3ccc(N4C(=S)N(c5ccc(C#N)c(C(F)(F)F)c5F)C(=O)C4(C)C)cn3)cc2)C(C)(C)C)cc1 has a Solubility (Dehydrated alcohol 35%-propylene glycol 45%-water 20% (w/w)) greater than 154310 µg/mL, a Solubility (Dehydrated alcohol 40%-propylene glycol 50%-water 10% (w/w)) greater than 64560 µg/mL and a solubility at 24 h (dehydrated alcohol 10%-propylene glycol 20%-water 70% (w/w), aqueous with cosolvent or surfactant or cyclodextrin, Dehydrated alcohol 10%-propylene glycol 20%-water 70% (w/w), read-out: Solubility) of 30 µg/mL (≈ 0.0288 mM). It also gave a solubility at 24 h (dehydrated alcohol 10%-propylene glycol 30%-water 60% (w/w), aqueous with cosolvent or surfactant or cyclodextrin, Dehydrated alcohol 10%-propylene glycol 30%-water 60% (w/w), read-out: Solubility) of 450 µg/mL (≈ 0.431 mM), a solubility at 24 h (dehydrated alcohol 10%: water 90% (w/w), aqueous with cosolvent or surfactant or cyclodextrin, Dehydrated alcohol 10%: water 90% (w/w), read-out: 24 h solubility) of 140 µg/mL (≈ 0.134 mM) and a solubility at 24 h (dehydrated alcohol 20%-propylene glycol 20%-water 60% (w/w), aqueous with cosolvent or surfactant or cyclodextrin, Dehydrated alcohol 20%-propylene glycol 20%-water 60% (w/w), read-out: Solubility) of 80 µg/mL (≈ 0.0767 mM). For the same compound, the solubility at 24 h (dehydrated alcohol 20%-propylene glycol 30%-water 50% (w/w), aqueous with cosolvent or surfactant or cyclodextrin, Dehydrated alcohol 20%-propylene glycol 30%-water 50% (w/w), read-out: Solubility) was 440 µg/mL (≈ 0.422 mM), the solubility at 24 h (dehydrated alcohol 20%-propylene glycol 40%-water 40% (w/w), aqueous with cosolvent or surfactant or cyclodextrin, Dehydrated alcohol 20%-propylene glycol 40%-water 40% (w/w), read-out: Solubility) was 3790 µg/mL (≈ 3.63 mM) and the solubility at 24 h (dehydrated alcohol 20%-propylene glycol 50%-water 30% (w/w), aqueous with cosolvent or surfactant or cyclodextrin, Dehydrated alcohol 20%-propylene glycol 50%-water 30% (w/w), read-out: Solubility) was 12600 µg/mL (≈ 12.1 mM). For the same compound, the solubility at 24 h (dehydrated alcohol 20%: water 80% (w/w), aqueous with cosolvent or surfactant or cyclodextrin, Dehydrated alcohol 20%: water 80% (w/w), read-out: 24 h solubility) was 140 µg/mL (≈ 0.134 mM), the solubility at 24 h (dehydrated alcohol 30%: water 70% (w/w), aqueous with cosolvent or surfactant or cyclodextrin, Dehydrated alcohol 30%: water 70% (w/w), read-out: 24 h solubility) was 110 µg/mL (≈ 0.105 mM) and the solubility at 24 h (dehydrated alcohol 35%-propylene glycol 45%-water 20% (w/w), aqueous with cosolvent or surfactant or cyclodextrin, Dehydrated alcohol 35%-propylene glycol 45%-water 20% (w/w), read-out: Solubility) was greater than 154000 µg/mL. For the same compound, the solubility at 24 h (dehydrated alcohol 40%-propylene glycol 50%-water 10% (w/w), aqueous with cosolvent or surfactant or cyclodextrin, Dehydrated alcohol 40%-propylene glycol 50%-water 10% (w/w), read-out: Solubility) was greater than 64600 µg/mL, the solubility at 24 h (dehydrated alcohol 40%: water 60% (w/w), aqueous with cosolvent or surfactant or cyclodextrin, Dehydrated alcohol 40%: water 60% (w/w), read-out: 24 h solubility) was 510 µg/mL (≈ 0.489 mM) and the solubility at 24 h (dehydrated alcohol 60%: water 40% (w/w), organic solvent or mixture, Dehydrated alcohol 60%: water 40% (w/w), read-out: 24 h solubility) was 26000 µg/mL (≈ 24.9 mM). It also gave a solubility at 24 h (dehydrated alcohol 70%: water 30% (w/w), organic solvent or mixture, Dehydrated alcohol 70%: water 30% (w/w), read-out: 24 h solubility) greater than 34900 µg/mL, a solubility at 24 h (dehydrated alcohol 80%: water 20% (w/w), organic solvent or mixture, Dehydrated alcohol 80%: water 20% (w/w), read-out: 24 h solubility) greater than 42100 µg/mL and a solubility at 24 h (dehydrated alcohol 90%: water 10% (w/w), organic solvent or mixture, Dehydrated alcohol 90%: water 10% (w/w), read-out: 24 h solubility) greater than 77700 µg/mL. The solubility at 24 h (dehydrated alcohol, organic solvent or mixture, solvent: Dehydrated alcohol, read-out: 24 h solubility) was greater than 54000 µg/mL, the solubility at 24 h (dehydrated alcohol-PEG400-water solvent mixture, aqueous with cosolvent or surfactant or cyclodextrin, Dehydrated alcohol 10%-PEG400 10%-water 80% (w/w), read-out: Solubility) was 10 µg/mL (≈ 0.00959 mM) and the solubility at 24 h (dehydrated alcohol-PEG400-water solvent mixture, aqueous with cosolvent or surfactant or cyclodextrin, Dehydrated alcohol 10%-PEG400 20%-water 70% (w/w), read-out: Solubility) was 20 µg/mL (≈ 0.0192 mM). For the same compound, the solubility at 24 h (dehydrated alcohol-PEG400-water solvent mixture, aqueous with cosolvent or surfactant or cyclodextrin, Dehydrated alcohol 20%-PEG400 20%-water 60% (w/w), read-out: Solubility) was 160 µg/mL (≈ 0.153 mM), the solubility at 24 h (dehydrated alcohol-PEG400-water solvent mixture, aqueous with cosolvent or surfactant or cyclodextrin, Dehydrated alcohol 20%-PEG400 30%-water 50% (w/w), read-out: Solubility) was 910 µg/mL (≈ 0.872 mM) and the solubility at 24 h (dehydrated alcohol-PEG400-water solvent mixture, aqueous with cosolvent or surfactant or cyclodextrin, Dehydrated alcohol 20%-PEG400 40%-water 40% (w/w), read-out: Solubility) was 7900 µg/mL (≈ 7.57 mM). For the same compound, the solubility at 24 h (dehydrated alcohol-PEG400-water solvent mixture, aqueous with cosolvent or surfactant or cyclodextrin, Dehydrated alcohol 30%-PEG400 10%-water 60% (w/w), read-out: Solubility) was 310 µg/mL (≈ 0.297 mM), the solubility at 24 h (dehydrated alcohol-PEG400-water solvent mixture, aqueous with cosolvent or surfactant or cyclodextrin, Dehydrated alcohol 30%-PEG400 20%-water 50% (w/w), read-out: Solubility) was 1950 µg/mL (≈ 1.87 mM) and the solubility at 24 h (dehydrated alcohol-PEG400-water solvent mixture, aqueous with cosolvent or surfactant or cyclodextrin, Dehydrated alcohol 30%-PEG400 30%-water 40% (w/w), read-out: Solubility) was 11600 µg/mL (≈ 11.1 mM). The solubility at 24 h (dehydrated alcohol-PEG400-water solvent mixture, aqueous with cosolvent or surfactant or cyclodextrin, Dehydrated alcohol 30%-PEG400 40%-water 30% (w/w), read-out: Solubility) was 89200 µg/mL (≈ 85.5 mM), the solubility at 24 h (dehydrated alcohol-PEG400-water solvent mixture, aqueous with cosolvent or surfactant or cyclodextrin, Dehydrated alcohol 35%-PEG400 30%-water 35% (w/w), read-out: Solubility) was 35700 µg/mL (≈ 34.2 mM) and the solubility at 24 h (dehydrated alcohol-PEG400-water solvent mixture, aqueous with cosolvent or surfactant or cyclodextrin, Dehydrated alcohol 35%-PEG400 35%-water 30% (w/w), read-out: Solubility) was 117000 µg/mL (≈ 112 mM). It also gave a solubility at 24 h (dehydrated alcohol-PEG400-water solvent mixture, aqueous with cosolvent or surfactant or cyclodextrin, Dehydrated alcohol 35%-PEG400 40%-water 25% (w/w), read-out: Solubility) greater than 181000 µg/mL, a solubility at 24 h (dehydrated alcohol-PEG400-water solvent mixture, aqueous with cosolvent or surfactant or cyclodextrin, Dehydrated alcohol 35%-PEG400 45%-water 20% (w/w), read-out: Solubility) greater than 258000 µg/mL and a solubility at 24 h (dehydrated alcohol-PEG400-water solvent mixture, aqueous with cosolvent or surfactant or cyclodextrin, Dehydrated alcohol 40%-PEG400 10%-water 50% (w/w), read-out: Solubility) of 3350 µg/mL (≈ 3.21 mM). The solubility at 24 h (dehydrated alcohol-PEG400-water solvent mixture, aqueous with cosolvent or surfactant or cyclodextrin, Dehydrated alcohol 40%-PEG400 20%-water 40% (w/w), read-out: Solubility) was 17400 µg/mL (≈ 16.7 mM), the solubility at 24 h (dehydrated alcohol-PEG400-water solvent mixture, aqueous with cosolvent or surfactant or cyclodextrin, Dehydrated alcohol 40%-PEG400 30%-water 30% (w/w), read-out: Solubility) was 111000 µg/mL (≈ 106 mM) and the solubility at 24 h (dehydrated alcohol-PEG400-water solvent mixture, aqueous with cosolvent or surfactant or cyclodextrin, Dehydrated alcohol 40%-PEG400 40%-water 20% (w/w), read-out: Solubility) was greater than 49100 µg/mL. The solubility at 24 h (dehydrated alcohol-PEG400-water solvent mixture, aqueous with cosolvent or surfactant or cyclodextrin, Dehydrated alcohol 50%-PEG400 30%-water 20% (w/w), read-out: Solubility) was greater than 49700 µg/mL, the solubility at 24 h (dehydrated alcohol-PEG400-water solvent mixture, aqueous with cosolvent or surfactant or cyclodextrin, Dehydrated alcohol 50%-PEG400 40%-water 10% (w/w), read-out: Solubility) was greater than 48500 µg/mL and the solubility at 24 h (dehydrated alcohol-propylene glycol-water solvent mixture, aqueous with cosolvent or surfactant or cyclodextrin, Dehydrated alcohol 10%-propylene glycol 40%-water 50% (w/w), read-out: Solubility) was 540 µg/mL (≈ 0.518 mM). It also gave a solubility at 24 h (dehydrated alcohol-propylene glycol-water solvent mixture, aqueous with cosolvent or surfactant or cyclodextrin, Dehydrated alcohol 10%-propylene glycol 50%-water 40% (w/w), read-out: Solubility) of 1490 µg/mL (≈ 1.43 mM), a solubility at 24 h (dehydrated alcohol-propylene glycol-water solvent mixture, aqueous with cosolvent or surfactant or cyclodextrin, Dehydrated alcohol 20%-propylene glycol 10%-water 70% (w/w), read-out: Solubility) of 40 µg/mL (≈ 0.0383 mM) and a solubility at 24 h (dehydrated alcohol-propylene glycol-water solvent mixture, aqueous with cosolvent or surfactant or cyclodextrin, Dehydrated alcohol 30%-propylene glycol 10%-water 60% (w/w), read-out: Solubility) of 200 µg/mL (≈ 0.192 mM). For the same compound, the solubility at 24 h (dehydrated alcohol-propylene glycol-water solvent mixture, aqueous with cosolvent or surfactant or cyclodextrin, Dehydrated alcohol 30%-propylene glycol 20%-water 50% (w/w), read-out: Solubility) was 2520 µg/mL (≈ 2.42 mM), the solubility at 24 h (dehydrated alcohol-propylene glycol-water solvent mixture, aqueous with cosolvent or surfactant or cyclodextrin, Dehydrated alcohol 30%-propylene glycol 30%-water 40% (w/w), read-out: Solubility) was 6390 µg/mL (≈ 6.13 mM) and the solubility at 24 h (dehydrated alcohol-propylene glycol-water solvent mixture, aqueous with cosolvent or surfactant or cyclodextrin, Dehydrated alcohol 30%-propylene glycol 40%-water 30% (w/w), read-out: Solubility) was 25200 µg/mL (≈ 24.2 mM). The solubility at 24 h (dehydrated alcohol-propylene glycol-water solvent mixture, aqueous with cosolvent or surfactant or cyclodextrin, Dehydrated alcohol 30%-propylene glycol 50%-water 20% (w/w), read-out: Solubility) was greater than 178000 µg/mL.
